Patent US4745202A, “Aerocyanidin-antibiotic” (E. R. Squibb & Sons, Inc., priority 1987, dated 1988)
Converted amounts (≈) assume the structure as drawn.

Key:
[1] = tested on: Acinetobacter calcoaceticus; test: MIC by agar dilution technique; type: cell-based; conditions: SC8333, SC No. 8333, 10^4 CFU, 37° C., 18 hours
Method: (§1) The minimum inhibitory concentration (MIC) of aerocavin was determined by an agar dilution technique. The test organisms were prepared from frozen stocks and diluted to give a final level of 10^7 CFU/ml (CFU is colony forming units). Aerocavin was dissolved in the appropriate diluent at a concentration of 1,000 μg/ml. Two fold dilutions were made in Yeast Beef Broth (Difco), resulting in a range from 1,000 μg/ml to 0.5 μg/ml. A 1.5 ml sample of each dilution was placed into individual petri dishes to which 13.5 ml of K-10 agar* was added. The final drug concentration in the agar ranged from 100 μg/ml to 0.05 μg/ml. Organism growth control plates containing agar only were prepared and inoculated before and after the test plates. The organisms were applied to the surface of each plate with the Denley Multipoint Inoculator (which delivers approximately 0.001 ml of each organism) resulting in a final inoculum level of 10^4 CFU on the agar surface. |*K-10 agar The plates were incubated at 37° C. for 18 hours and the MIC's then determined. The MIC is the lowest concentration of compound inhibiting growth of the organism.

[2] = tested on: Staphylococcus epidermidis; test: MIC by agar dilution technique; type: cell-based; conditions: 37° C., 18 hours
Method: as §1

solubility = type: physicochemical
gram positive organisms = test: activity against gram positive organisms; type: cell-based
Escherichia coli = test: MIC by agar dilution technique; type: cell-based; conditions: 37° C., 18 hours
Method: as §1, with “surface.” for “surface. |*K-10 agar The plates were incubated at 37° C. for 18 hours and the MIC's then determined. The MIC is the lowest concentration of compound inhibiting growth of the organism.”
(§2) The plates were incubated at 37° C. for 18 hours and the MIC's then determined. The MIC is the lowest concentration of compound inhibiting growth of the organism.
(§3) Using the methodology described for the determination of the biological activity of aerocavin, the biological activity of aerocyanidin was determined.

Pseudomonas aeruginosa = test: MIC by agar dilution technique; type: cell-based; conditions: 37° C., 18 hours
Method: as §1, with “surface.” for “surface. |*K-10 agar The plates were incubated at 37° C. for 18 hours and the MIC's then determined. The MIC is the lowest concentration of compound inhibiting growth of the organism.”
as §2, §3

Staphylococcus aureus = test: MIC by agar dilution technique; type: cell-based; conditions: 37° C., 18 hours
Method: as §1, with “surface.” for “surface. |*K-10 agar The plates were incubated at 37° C. for 18 hours and the MIC's then determined. The MIC is the lowest concentration of compound inhibiting growth of the organism.”
as §2, §3

stability on storage = type: physicochemical; conditions: solid state, compared with ethyl acetate solution at 4° C.
Klebsiella pneumoniae = test: MIC by agar dilution technique; type: cell-based; conditions: SC9527, SC No. 9527, 10^4 CFU, 37° C., 18 hours
Method: as §1, with “surface.” for “surface. |*K-10 agar The plates were incubated at 37° C. for 18 hours and the MIC's then determined. The MIC is the lowest concentration of compound inhibiting growth of the organism.”
as §2, §3

Enterobacter cloacae = test: MIC by agar dilution technique; type: cell-based; conditions: SC8236, SC No. 8236, 10^4 CFU, 37° C., 18 hours
Method: as §1, with “surface.” for “surface. |*K-10 agar The plates were incubated at 37° C. for 18 hours and the MIC's then determined. The MIC is the lowest concentration of compound inhibiting growth of the organism.”
as §2, §3

Salmonella typhosa = test: MIC by agar dilution technique; type: cell-based; conditions: Salmonella enterica, SC1195 / TYPHOSA, 18 h
Method: as §1, with “surface.” for “surface. |*K-10 agar The plates were incubated at 37° C. for 18 hours and the MIC's then determined. The MIC is the lowest concentration of compound inhibiting growth of the organism.”
as §2, §3

Shigella sonnei = test: MIC by agar dilution technique; type: cell-based; conditions: SC8449, SC No. 8449, 10^4 CFU, 37° C., 18 hours
Method: as §1, with “surface.” for “surface. |*K-10 agar The plates were incubated at 37° C. for 18 hours and the MIC's then determined. The MIC is the lowest concentration of compound inhibiting growth of the organism.”
as §2, §3

Klebsiella aerogenes = test: MIC by agar dilution technique; type: cell-based; conditions: SC10440, SC No. 10440, 10^4 CFU, 37° C., 18 hours
Method: as §1, with “surface.” for “surface. |*K-10 agar The plates were incubated at 37° C. for 18 hours and the MIC's then determined. The MIC is the lowest concentration of compound inhibiting growth of the organism.”
as §2, §3

Streptococcus faecalis = test: MIC by agar dilution technique; type: cell-based; conditions: Enterococcus faecalis, SC9011; SC No. 9011; 10^4 CFU, 37° C., 18 hours
Method: as §1, with “surface.” for “surface. |*K-10 agar The plates were incubated at 37° C. for 18 hours and the MIC's then determined. The MIC is the lowest concentration of compound inhibiting growth of the organism.”
as §2, §3

Micrococcus luteus = test: MIC by agar dilution technique; type: cell-based; conditions: SC2495, SC No. 2495, 10^4 CFU, 37° C., 18 hours
Method: as §1, with “surface.” for “surface. |*K-10 agar The plates were incubated at 37° C. for 18 hours and the MIC's then determined. The MIC is the lowest concentration of compound inhibiting growth of the organism.”
as §2, §3

Proteus mirabilis = test: MIC by agar dilution technique; type: cell-based; conditions: SC3855, SC No. 3855, 10^4 CFU, 37° C., 18 hours
Method: as §1, with “surface.” for “surface. |*K-10 agar The plates were incubated at 37° C. for 18 hours and the MIC's then determined. The MIC is the lowest concentration of compound inhibiting growth of the organism.”
as §2, §3

Streptococcus agalactiae = test: MIC by agar dilution technique; type: cell-based; conditions: SC9287, SC No. 9287, 10^4 CFU, 37° C., 18 hours
Method: as §1, with “surface.” for “surface. |*K-10 agar The plates were incubated at 37° C. for 18 hours and the MIC's then determined. The MIC is the lowest concentration of compound inhibiting growth of the organism.”
as §2, §3

CCCCCCCCC[C@@H](O)C[C@H]1C[C@H](O)C/C(C)=C/C/C=C/C/C(CC(=O)O)=C\C(=O)O1 (relative stereo) [aerocavin, [3E,6E,9E,12α,14β(R*)]-12-hydroxy-14-(2-hydroxyundecyl)-10-methyl-2-oxooxacyclotetradeca-3,6,9-triene-4-acetic acid]
MIC [1]: 12.5 µg/mL (≈ 26.9 µM) | MIC ([2]; SC9052, SC No. 9052, 10^4 CFU): 6.3 µg/mL (≈ 13.6 µM) | MIC ([2]; SC10547, SC No. 10547 (Penicillin^R), 10^4 CFU): 3.1 µg/mL (≈ 6.67 µM) | solubility (solubility; in heptane): less soluble | solubility (solubility; in methanol, acetone, ethyl acetate): substantially soluble | solubility (solubility; in water): insoluble | activity against gram positive organisms (gram positive organisms): has activity against gram positive organisms | MIC (Escherichia coli; SC8294, SC No. 8294, 10^4 CFU): 100 µg/mL (≈ 215 µM) | MIC (Escherichia coli; SC10857, SC No. 10857, 10^4 CFU): 12.5 µg/mL (≈ 26.9 µM) | MIC (Pseudomonas aeruginosa; SC9545, SC No. 9545, 10^4 CFU): 25 µg/mL (≈ 53.8 µM) | MIC (Staphylococcus aureus; SC1276, SC No. 1276, 10^4 CFU): 6.3 µg/mL (≈ 13.6 µM) | MIC (Staphylococcus aureus; SC2399, SC No. 2399, 10^4 CFU): 6.3 µg/mL (≈ 13.6 µM) | MIC (Staphylococcus aureus; SC9593, SC No. 9593 (Penicillin^R), 10^4 CFU): 6.3 µg/mL (≈ 13.6 µM) | MIC (Staphylococcus aureus; SC10016, SC No. 10016 (Tetracycline^R), 10^4 CFU): 3.1 µg/mL (≈ 6.67 µM) | MIC (Staphylococcus aureus; SC10820, SC No. 10820 (Erythromycin^R), 10^4 CFU): 3.1 µg/mL (≈ 6.67 µM)

[C-]#[N+][C@]1(C)O[C@@H]1[C@H](O)CCCCCCCCCC(=O)O (relative stereo) [aerocyanidin, [2α(R*),3α]-κ-hydroxy-3-isocyano-3-methyloxiraneundecanoic acid]
stability (stability on storage): less stable in the solid state | activity against gram positive organisms (gram positive organisms): has activity against gram positive organisms | MIC (Klebsiella pneumoniae): > 50 µg/mL | MIC (Enterobacter cloacae): 50 µg/mL (≈ 176 µM) | MIC (Escherichia coli; SC8294, SC No. 8294, 10^4 CFU): > 50 µg/mL | MIC (Escherichia coli; SC10896, SC No. 10896, 10^4 CFU): 25 µg/mL (≈ 88.2 µM) | MIC (Escherichia coli; SC10909, SC No. 10909, 10^4 CFU): 1.6 µg/mL (≈ 5.65 µM) | MIC (Salmonella typhosa): 25 µg/mL (≈ 88.2 µM) | MIC (Shigella sonnei): 25 µg/mL (≈ 88.2 µM) | MIC (Klebsiella aerogenes): > 50 µg/mL | MIC (Streptococcus faecalis): 0.2 µg/mL (≈ 0.706 µM) | MIC (Micrococcus luteus): 0.4 µg/mL (≈ 1.41 µM) | MIC (Pseudomonas aeruginosa; SC8329, SC No. 8329, 10^4 CFU): > 50 µg/mL | MIC (Staphylococcus aureus; SC1276, SC No. 1276, 10^4 CFU): < 0.05 µg/mL | MIC (Staphylococcus aureus; SC2399, SC No. 2399, 10^4 CFU): < 0.05 µg/mL | MIC (Staphylococcus aureus; SC2400, SC No. 2400, 10^4 CFU): < 0.05 µg/mL | MIC (Proteus mirabilis): 1.6 µg/mL (≈ 5.65 µM) | MIC (Streptococcus agalactiae): < 0.05 µg/mL
